Measured values: patent publication US9187471B2, “Pyrido [4,3-b] indole and pyrido [3,4-b] indole derivatives and methods of use” (Medivation Technologies, Inc., priority 2010, dated 2015)

How the values were obtained:
[1] = biological target: T1, human recombinant histamine H1 receptor (Homo sapiens, UniProt P35367); test: Histamine H1 radioligand binding ([3H]Pyrilamine); conditions: read-out: Histamine H1 Binding (1 μM), percent inhibition of specific binding; compound at 1 μM; 1.2 nM [3H]Pyrilamine
T1 construct: expressed in transfected cells; host or cells: CHO-K1
T1 sequence (P35367 whole entry): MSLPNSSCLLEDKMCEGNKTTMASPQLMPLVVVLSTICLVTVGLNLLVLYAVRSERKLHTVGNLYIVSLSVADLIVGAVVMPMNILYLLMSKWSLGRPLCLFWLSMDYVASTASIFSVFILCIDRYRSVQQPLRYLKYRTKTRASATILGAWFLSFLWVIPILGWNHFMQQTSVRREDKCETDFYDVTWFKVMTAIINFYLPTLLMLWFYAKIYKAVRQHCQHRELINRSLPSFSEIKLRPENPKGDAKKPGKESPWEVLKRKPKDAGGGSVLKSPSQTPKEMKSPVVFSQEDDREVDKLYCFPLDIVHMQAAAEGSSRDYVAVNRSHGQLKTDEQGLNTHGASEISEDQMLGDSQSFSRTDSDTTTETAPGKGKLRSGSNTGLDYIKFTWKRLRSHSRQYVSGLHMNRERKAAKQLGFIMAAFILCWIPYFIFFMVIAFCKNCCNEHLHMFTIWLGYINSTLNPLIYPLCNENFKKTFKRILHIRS
Outline: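 Human recombinant H1 receptor expressed in CHO-K1 cells, in 50 mM Tris-HCl pH 7.4 with 2 mM MgCl2, 100 mM NaCl, 250 mM sucrose. Non-specific binding defined with 1 μM pyrilamine; bound [3H]pyrilamine counted after filtration and washing. Values are percent inhibition of specific binding.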

[2] = biological target: T2, rat adrenergic α1A receptor (Rattus norvegicus, UniProt P43140); test: Adrenergic α1A radioligand binding ([3H]Prazosin); conditions: read-out: Adrenergic (0.1 μM) a1A, percent inhibition of specific binding; compound at 0.1 μM; 0.25 nM [3H]Prazosin
T2 construct: rat adrenergic α1A receptor obtained from Wistar Rat submaxillary glands; from tissue; host or cells: Wistar rat submaxillary glands
T2 sequence (P43140 1-466): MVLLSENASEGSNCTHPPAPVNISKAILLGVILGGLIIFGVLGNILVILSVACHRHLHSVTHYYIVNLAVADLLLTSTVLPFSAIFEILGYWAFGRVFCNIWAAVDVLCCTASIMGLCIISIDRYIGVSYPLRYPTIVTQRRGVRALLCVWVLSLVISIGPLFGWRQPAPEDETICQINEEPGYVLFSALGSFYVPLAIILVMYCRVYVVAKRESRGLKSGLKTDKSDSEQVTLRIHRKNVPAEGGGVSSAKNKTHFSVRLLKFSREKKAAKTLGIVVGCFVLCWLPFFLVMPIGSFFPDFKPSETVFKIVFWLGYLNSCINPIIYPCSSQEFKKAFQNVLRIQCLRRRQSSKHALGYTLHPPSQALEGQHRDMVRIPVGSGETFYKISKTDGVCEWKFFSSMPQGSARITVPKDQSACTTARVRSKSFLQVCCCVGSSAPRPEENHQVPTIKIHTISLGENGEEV
Outline: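 Wistar rat submaxillary gland receptor in 50 mM Tris-HCl pH 7.4 with 0.5 mM EDTA, incubated with compound and 0.25 nM [3H]Prazosin for 60 min at 25 °C.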

[3] = biological target: T3, human recombinant adrenergic α2C receptor (Homo sapiens, UniProt P18825); test: Adrenergic α2C radioligand binding ([3H]MK-912); conditions: read-out: Adrenergic (0.1 μM) a2C, percent inhibition of specific binding; compound at 0.1 μM; 1 nM [3H]MK-912
T3 construct: expressed in transfected cells; host or cells: insect Sf9 cells
T3 sequence (P18825 1-462): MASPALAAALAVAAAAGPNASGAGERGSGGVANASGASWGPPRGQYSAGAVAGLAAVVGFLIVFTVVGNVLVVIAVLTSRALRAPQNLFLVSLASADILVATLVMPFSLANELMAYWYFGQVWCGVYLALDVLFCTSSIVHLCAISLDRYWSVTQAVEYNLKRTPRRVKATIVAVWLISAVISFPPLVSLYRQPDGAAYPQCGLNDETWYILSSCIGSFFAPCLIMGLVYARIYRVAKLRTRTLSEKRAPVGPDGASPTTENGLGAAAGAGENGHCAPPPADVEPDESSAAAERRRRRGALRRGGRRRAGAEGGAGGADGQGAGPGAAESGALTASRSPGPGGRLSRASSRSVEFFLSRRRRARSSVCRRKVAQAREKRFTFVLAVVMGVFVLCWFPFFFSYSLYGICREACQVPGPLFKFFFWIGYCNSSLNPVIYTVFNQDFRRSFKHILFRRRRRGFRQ
Outline: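 Membranes from Sf9 cells expressing the human receptor, in 50 mM Tris-HCl pH 7.4 with 12.5 mM MgCl2 and 2 mM EDTA, incubated with compound and 1 nM [3H]MK-912 for 60 min at 25 °C. Non-specific binding defined with 10 μM WB-4101. Filter-bound radioactivity counted; percent inhibition of specific binding reported.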

[4] = biological target: T4, human recombinant serotonin (5-Hydroxytryptamine) 5-HT5A receptor (Homo sapiens, UniProt P47898); test: Serotonin 5-HT5A radioligand binding ([3H]LSD); conditions: compound at 0.1 μM; read-out: Inhibition of ligand binding, Serotonin 5-HT5A (percent inhibition of specific binding)
T4 construct: expressed in transfected cells; host or cells: CHO-K1
T4 sequence (P47898 whole entry): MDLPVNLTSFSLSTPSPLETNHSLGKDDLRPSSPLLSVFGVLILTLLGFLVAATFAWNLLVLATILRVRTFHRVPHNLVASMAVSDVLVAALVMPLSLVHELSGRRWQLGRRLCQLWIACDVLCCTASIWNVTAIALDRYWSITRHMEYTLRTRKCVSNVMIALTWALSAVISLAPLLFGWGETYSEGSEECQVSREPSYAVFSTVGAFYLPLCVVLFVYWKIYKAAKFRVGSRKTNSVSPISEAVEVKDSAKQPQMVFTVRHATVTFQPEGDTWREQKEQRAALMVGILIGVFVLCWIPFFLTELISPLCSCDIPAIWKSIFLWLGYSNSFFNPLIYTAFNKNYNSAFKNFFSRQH
Procedure: Compounds of the invention were incubated with 1.7 nM [^3H]Lysergic acid diethylamide (LSD) for 60 min at 37° C. […] Receptor proteins were filtered and washed, the filters were counted to determine [^3H]LSD specifically bound.

[5] = biological target: T5, human recombinant serotonin (5-Hydroxytryptamine) 5-HT6 receptor (Homo sapiens, UniProt P50406); test: Serotonin 5-HT6 radioligand binding ([3H]LSD); conditions: compound at 0.1 μM; read-out: Inhibition of ligand binding, Serotonin 5-HT6 (percent inhibition of specific binding)
T5 construct: expressed in transfected cells; host or cells: HeLa
T5 sequence (P50406 whole entry): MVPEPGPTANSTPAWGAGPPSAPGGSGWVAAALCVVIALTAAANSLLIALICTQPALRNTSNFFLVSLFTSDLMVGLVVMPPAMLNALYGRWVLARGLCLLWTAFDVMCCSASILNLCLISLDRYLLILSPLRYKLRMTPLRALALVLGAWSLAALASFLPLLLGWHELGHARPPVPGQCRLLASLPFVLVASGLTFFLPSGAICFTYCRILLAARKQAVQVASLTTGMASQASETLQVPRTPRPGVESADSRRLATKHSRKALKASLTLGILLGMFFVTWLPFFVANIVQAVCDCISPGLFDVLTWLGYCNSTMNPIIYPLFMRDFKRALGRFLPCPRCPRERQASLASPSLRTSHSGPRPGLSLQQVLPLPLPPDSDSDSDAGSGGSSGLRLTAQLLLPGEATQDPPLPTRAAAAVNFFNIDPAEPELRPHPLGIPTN
Excerpt: Receptor proteins were filtered and washed, the filters were then counted to determine [3H]LSD specifically bound.

Structure (SMILES) | inhibition at 1 µM [1] | inhibition at 0.1 µM [2] | inhibition at 0.1 µM [3] | inhibition at 0.1 µM [4] | inhibition at 0.1 µM [5]
Cc1ccc2c(c1)c1c(n2-c2ccc(-c3ccnn3C)cn2)CCN(C)C1 [Compound No. 146, 2,8-dimethyl-5-(5-(1-methyl-1H-pyrazol-5-yl)pyridin-2-yl)-2,3,4,5-tetrahydro-1H-pyrido[4,3-b]indole] | 8% | 33% | -1% | 10% | -17%
CC(=O)Nc1ccc(-c2cscc2-n2c3c(c4cc(C)ccc42)CN(C)CC3)cn1 [Compound 56] | 10% | 49% | 2% | 51% | 16%
Cc1ccc2c(c1)c1c(n2-c2cccc(-c3ccc(F)nc3)c2)CCN(C)C1 [Compound 44, 5-(3-(6-fluoropyridin-3-yl)phenyl)-2,8-dimethyl-2,3,4,5-tetrahydro-1H-pyrido[4,3-b]indole] | 41% | 15% | 10% | 61% | 21%
CC(=O)Nc1ccc(-c2ccccc2-n2c3c(c4cc(C)ccc42)CN(C)CC3)cn1 [Compound No. 83, N-(5-(2-(2,8-dimethyl-3,4-dihydro-1H-pyrido[4,3-b]indol-5(2H)-yl)phenyl)pyridin-2-yl)acetamide] | 22% | 23% | -5% | 11% | 3%
Cc1ccc2c(c1)c1c(n2-c2ccc3cnccc3c2)CCN(C)C1 [Compound 38] | -4% | 36% | 11% | 29% | 73%
Cc1ccc2c(c1)c1c(n2-c2cccc(-c3ccc(S(C)(=O)=O)cc3)c2)CCN(C)C1 [Compound No. 131, 2,8-dimethyl-5-(4′-(methylsulfonyl)biphenyl-3-yl)-2,3,4,5-tetrahydro-1H-pyrido[4,3-b]indole] | 20% | 0% | 13% | 19% | -3%
CNC(=O)c1cc(-n2c3c(c4cc(C)ccc42)CN(C)CC3)cs1 [Compound No. 78] | 13% | 16% | 3% | 24% | 17%
Cc1ccc2c(c1)c1c(n2-c2ccc(-c3cnn(C)c3)cn2)CCN(C)C1 [Compound No. 134, 2,8-dimethyl-5-(5-(1-methyl-1H-pyrazol-4-yl)pyridin-2-yl)-2,3,4,5-tetrahydro-1H-pyrido[4,3-b]indole] | 6% | -2% | -2% | -4% | -2%
CNC(=O)c1ccc(-c2cscc2-n2c3c(c4cc(C)ccc42)CN(C)CC3)cc1 [Compound No. 155] | 10% | 80% | 0% | 69% | -6%
Cc1ccc2c(c1)c1c(n2-c2ccc(-c3ccc(S(N)(=O)=O)cc3)cn2)CCN(C)C1 [Compound No. 145, 4-(6-(2,8-dimethyl-3,4-dihydro-1H-pyrido[4,3-b]indol-5(2H)-yl)pyridin-3-yl)benzenesulfonamide] | 17% | 44% | 6% | 15% | -11%
Cc1ccc2c(c1)c1c(n2-c2ccc3ccncc3c2)CCN(C)C1 [Compound No. 74, 5-(isoquinolin-7-yl)-2,8-dimethyl-2,3,4,5-tetrahydro-1H-pyrido[4,3-b]indole] | 18% | 52% | 11% | 21% | 14%
Cc1ccc2c(c1)c1c(n2-c2cscc2-c2cccc3[nH]ncc23)CCN(C)C1 [Compound 41] | 28% | 59% | 55% | 94% | 36%
Cc1ccc2c(c1)c1c(n2-c2cccc(-c3cnn(C)c3)c2)CCN(C)C1 [Compound 46, 2,8-dimethyl-5-(3-(1-methyl-1H-pyrazol-4-yl)phenyl)-2,3,4,5-tetrahydro-1H-pyrido[4,3-b]indole] | 19% | 16% | 6% | 32% | 14%
Cc1ccc2c(c1)c1c(n2-c2ccc(-c3ccc(F)nc3)cn2)CCN(C)C1 [Compound No. 142, 5-(6′-fluoro-3,3′-bipyridin-6-yl)-2,8-dimethyl-2,3,4,5-tetrahydro-1H-pyrido[4,3-b]indole] | 7% | 46% | 5% | 23% | -12%
Cc1ccc2c(c1)c1c(n2-c2cccc(-c3ccc4[nH]cnc4c3)c2)CCN(C)C1 [Compound 54, 5-(3-(1H-benzo[d]imidazol-5-yl)phenyl)-2,8-dimethyl-2,3,4,5-tetrahydro-1H-pyrido[4,3-b]indole] | 40% | -7% | 12% | 33% | 25%
Cc1ccc2c(c1)c1c(n2-c2cccc(-c3c(C)noc3C)c2)CCN(C)C1 [Compound No. 65, 4-(3-(2,8-dimethyl-3,4-dihydro-1H-pyrido[4,3-b]indol-5(2H)-yl)phenyl)-3,5-dimethylisoxazole] | 31% | 1% | 8% | 63% | 38%
Cc1cc(C)c2c(c1)c1c(n2-c2cccc3ncccc23)CCN(C)C1 [Compound 47] | 42% | -1% | 11% | 29% | 18%
Cc1ccc2c(c1)c1c(n2-c2ccc(-c3ccc4c(ccn4C)c3)cn2)CCN(C)C1 [Compound No. 136, 2,8-dimethyl-5-(5-(1-methyl-1H-indol-5-yl)pyridin-2-yl)-2,3,4,5-tetrahydro-1H-pyrido[4,3-b]indole] | 5% | 20% | 24% | 50% | 10%
Cc1ccc2c(c1)c1c(n2-c2cccc(-c3cnc(N(C)C)nc3)c2)CCN(C)C1 [Compound 42, 5-(3-(2,8-dimethyl-3,4-dihydro-1H-pyrido[4,3-b]indol-5(2H)-yl)phenyl)-N,N-dimethylpyrimidin-2-amine] | 0% | 9% | -11% | 11% | 17%
Cc1ccc2c(c1)c1c(n2-c2ccc(-c3ccncc3)cn2)CCN(C)C1 [Compound No. 132, 5-(3,4′-bipyridin-6-yl)-2,8-dimethyl-2,3,4,5-tetrahydro-1H-pyrido[4,3-b]indole] | 3% | 11% | -2% | 2% | 2%
